Measured values as given in ChEMBL document CHEMBL1154627, “Structure-activity relationship studies of targeting ligands against breast cancer cells” (J Med Chem, 2009).

Experiment: Binding affinity to alpha3beta1 integrin receptor in human MDA-MB-231 cells assessed as inhibition of cell binding to immobilized LXY1 peptide by cell adherence assay
Format: cell-based

| SMILES | IC50 [µM] |
| --- | --- |
| NC(=O)C[C@@H]1NC(=O)[C@@H]2C[C@@H](O)CN2C(=O)CNC(=O)[C@H](Cc2ccc(O)c([N+](=O)[O-])c2)NC(=O)CNC(=O)[C@@H](CC(=O)O)NC(=O)[C@@H](N)CCCCNC1=O | > 25 |
| NC(=O)C[C@@H]1NC(=O)[C@@H]2C[C@@H](O)CN2C(=O)CNC(=O)[C@H](Cc2ccc(O)c([N+](=O)[O-])c2)NC(=O)CNC(=O)[C@@H](CC(=O)O)NC(=O)[C@H](NCc2ccc(-c3ccccc3)cc2)CSSC[C@H](C(N)=O)NC1=O | > 25 |
| NC(=O)C[C@@H]1NC(=O)[C@@H]2C[C@@H](O)CN2C(=O)CNC(=O)[C@@H]2C[C@@H](F)CN2C(=O)CNC(=O)[C@@H](CC(=O)O)NC(=O)[C@H](N)CSSC[C@H](C(N)=O)NC1=O | 18.5 |
| NC(=O)C[C@@H]1NC(=O)[C@@H]2C[C@@H](O)CN2C(=O)CNC(=O)[C@H](Cc2ccc(O)c([N+](=O)[O-])c2)NC(=O)CNC(=O)[C@@H](CC(=O)O)NC(=O)[C@H](NC(=O)Nc2ccc(Cl)cc2)CSSC[C@H](C(N)=O)NC1=O | > 25 |
| COC(=O)c1ccc(NC(=O)N[C@@H]2CSSC[C@H](C(N)=O)NC(=O)[C@H](CC(N)=O)NC(=O)[C@@H]3C[C@@H](O)CN3C(=O)CNC(=O)[C@H](Cc3ccc(O)c([N+](=O)[O-])c3)NC(=O)CNC(=O)[C@@H](CC(=O)O)NC2=O)cc1 | > 25 |
| NC(=O)C[C@@H]1NC(=O)[C@@H]2C[C@@H](O)CN2C(=O)CNC(=O)[C@H](Cc2ccc(O)c([N+](=O)[O-])c2)NC(=O)CNC(=O)[C@@H](CC(=O)O)NC(=O)[C@H](NC(=O)CCc2ccccc2)CSSC[C@H](C(N)=O)NC1=O | > 25 |
| NC(=O)C[C@@H]1NC(=O)[C@@H]2C[C@@H](O)CN2C(=O)CNC(=O)[C@H](Cc2ccc(O)c([N+](=O)[O-])c2)NC(=O)CNC(=O)[C@@H](CC(=O)O)NC(=O)[C@H](NC(=O)Nc2ccc([N+](=O)[O-])cc2)CSSC[C@H](C(N)=O)NC1=O | > 25 |
| NC(=O)C[C@@H]1NC(=O)[C@@H]2C[C@@H](O)CN2C(=O)CNC(=O)[C@H](Cc2ccc(O)c([N+](=O)[O-])c2)NC(=O)CNC(=O)[C@@H](CC(=O)O)NC(=O)[C@H](NCc2cccc([N+](=O)[O-])c2)CSSC[C@H](C(N)=O)NC1=O | > 25 |
| NC(=O)C[C@@H]1NC(=O)[C@@H]2C[C@@H](O)CN2C(=O)CNC(=O)[C@H](Cc2ccc(O)c([N+](=O)[O-])c2)NC(=O)CNC(=O)[C@@H](CC(=O)O)NC(=O)[C@H](NC(=O)Nc2ccccc2)CSSC[C@H](C(N)=O)NC1=O | > 25 |
| NC(=O)C[C@@H]1NC(=O)[C@@H]2C[C@@H](O)CN2C(=O)CNC(=O)[C@H](Cc2ccc(O)c([N+](=O)[O-])c2)NC(=O)CNC(=O)[C@@H](CC(=O)O)NC(=O)[C@H](NC(=O)NC2CCCCC2)CSSC[C@H](C(N)=O)NC1=O | > 25 |
| NC(=O)C[C@@H]1NC(=O)[C@@H]2C[C@@H](O)CN2C(=O)CNC(=O)[C@H](Cc2ccc(O)c([N+](=O)[O-])c2)NC(=O)CNC(=O)[C@@H](CC(=O)O)NC(=O)[C@H](N)CNC(=O)C[C@H](C(N)=O)NC1=O | > 25 |
| NC(=O)C[C@@H]1NC(=O)[C@@H]2C[C@@H](O)CN2C(=O)CNC(=O)[C@H](Cc2ccc(O)c([N+](=O)[O-])c2)NC(=O)CNC(=O)[C@@H](CC(=O)O)NC(=O)[C@H](NCC2CCCCC2)CSSC[C@H](C(N)=O)NC1=O | > 25 |
| CCCCCCN[C@@H]1CSSC[C@H](C(N)=O)NC(=O)[C@H](CC(N)=O)NC(=O)[C@@H]2C[C@@H](O)CN2C(=O)CNC(=O)[C@H](Cc2ccc(O)c([N+](=O)[O-])c2)NC(=O)CNC(=O)[C@@H](CC(=O)O)NC1=O | > 25 |
| CC(C)NC(=O)N[C@@H]1CSSC[C@H](C(N)=O)NC(=O)[C@H](CC(N)=O)NC(=O)[C@@H]2C[C@@H](O)CN2C(=O)CNC(=O)[C@H](Cc2ccc(O)c([N+](=O)[O-])c2)NC(=O)CNC(=O)[C@@H](CC(=O)O)NC1=O | > 25 |
| NC(=O)C[C@@H]1NC(=O)[C@@H]2C[C@@H](O)CN2C(=O)CNC(=O)[C@H](Cc2ccc(O)c([N+](=O)[O-])c2)NC(=O)CNC(=O)[C@@H](CC(=O)O)NC(=O)[C@H](N)C/C=C/C[C@H](C(N)=O)NC1=O | > 25 |
| NC(=O)C[C@@H]1NC(=O)[C@@H]2C[C@@H](O)CN2C(=O)CNC(=O)[C@H](Cc2ccc(O)c([N+](=O)[O-])c2)NC(=O)CNC(=O)[C@@H](CC(=O)O)NC(=O)[C@H](NC(=O)Nc2ccc(C(F)(F)F)cc2)CSSC[C@H](C(N)=O)NC1=O | > 25 |
| NC(=O)C[C@@H]1NC(=O)[C@@H]2C[C@@H](O)CN2C(=O)CNC(=O)[C@@H]2C[C@@H](c3ccccc3)CN2C(=O)CNC(=O)[C@@H](CC(=O)O)NC(=O)[C@H](N)CSSC[C@H](C(N)=O)NC1=O | > 25 |
| NC(=O)C[C@@H]1NC(=O)[C@@H]2C[C@@H](O)CN2C(=O)CNC(=O)[C@H](Cc2ccc(O)c([N+](=O)[O-])c2)NC(=O)CNC(=O)[C@@H](CC(=O)O)NC(=O)[C@H](NCc2ccc(C(F)(F)F)cc2)CSSC[C@H](C(N)=O)NC1=O | > 25 |
| NC(=O)C[C@@H]1NC(=O)[C@@H]2C[C@@H](O)CN2C(=O)CNC(=O)[C@@H]2CCCCN2C(=O)CNC(=O)[C@@H](CC(=O)O)NC(=O)[C@H](N)CSSC[C@H](C(N)=O)NC1=O | 24.1 |
| CCCCNC(=O)N[C@@H]1CSSC[C@H](C(N)=O)NC(=O)[C@H](CC(N)=O)NC(=O)[C@@H]2C[C@@H](O)CN2C(=O)CNC(=O)[C@H](Cc2ccc(O)c([N+](=O)[O-])c2)NC(=O)CNC(=O)[C@@H](CC(=O)O)NC1=O | > 25 |

Results, then the compound that gave them:

| IC50 [µM] | SMILES |
| --- | --- |
| > 25 | NC(=O)C[C@@H]1NC(=O)[C@@H]2C[C@@H](O)CN2C(=O)CNC(=O)[C@H](Cc2ccc(O)c(N)c2)NC(=O)CNC(=O)[C@@H](CC(=O)O)NC(=O)[C@H](N)CSSC[C@H](C(N)=O)NC1=O |
| 10.5 | NC(=O)C[C@@H]1NC(=O)[C@@H]2C[C@@H](O)CN2C(=O)CNC(=O)[C@@H]2SCCN2C(=O)CNC(=O)[C@@H](CC(=O)O)NC(=O)[C@H](N)CSSC[C@H](C(N)=O)NC1=O |
| 11.7 | NC(=O)C[C@@H]1NC(=O)[C@@H]2C[C@@H](O)CN2C(=O)CNC(=O)[C@H](c2c(F)c(F)c(F)c(F)c2F)NC(=O)CNC(=O)[C@@H](CC(=O)O)NC(=O)[C@H](N)CSSC[C@H](C(N)=O)NC1=O |
| 11.3 | NC(=O)C[C@@H]1NC(=O)[C@@H]2C[C@@H](O)CN2C(=O)CNC(=O)[C@H](c2cccc(F)c2)NC(=O)CNC(=O)[C@@H](CC(=O)O)NC(=O)[C@H](N)CSSC[C@H](C(N)=O)NC1=O |
| 15.3 | NC(=O)C[C@@H]1NC(=O)[C@@H]2C[C@@H](O)CN2C(=O)CNC(=O)[C@@H]2C=CCN2C(=O)CNC(=O)[C@@H](CC(=O)O)NC(=O)[C@H](N)CSSC[C@H](C(N)=O)NC1=O |
| > 25 | NC(=O)C[C@@H]1NC(=O)[C@@H]2C[C@@H](O)CN2C(=O)CNC(=O)[C@H](c2ccccc2F)NC(=O)CNC(=O)[C@@H](CC(=O)O)NC(=O)[C@H](N)CSSC[C@H](C(N)=O)NC1=O |
| > 25 | NC(=O)C[C@@H]1NC(=O)[C@@H]2C[C@@H](O)CN2C(=O)CNC(=O)[C@H](Cc2ccc(O)c(I)c2)NC(=O)CNC(=O)[C@@H](CC(=O)O)NC(=O)[C@H](N)CSSC[C@H](C(N)=O)NC1=O |
| 6.3 | NC(=O)C[C@@H]1NC(=O)[C@@H]2C[C@@H](O)CN2C(=O)CNC(=O)[C@H](c2ccc(F)c(F)c2)NC(=O)CNC(=O)[C@@H](CC(=O)O)NC(=O)[C@H](N)CSSC[C@H](C(N)=O)NC1=O |
| > 25 | N#Cc1cccc([C@@H]2NC(=O)CNC(=O)[C@@H](CC(=O)O)NC(=O)[C@H](N)CSSC[C@H](C(N)=O)NC(=O)[C@H](CC(N)=O)NC(=O)[C@@H]3C[C@@H](O)CN3C(=O)CNC2=O)c1 |
| 11.9 | NC(=O)C[C@@H]1NC(=O)[C@@H]2C[C@@H](O)CN2C(=O)CNC(=O)[C@H](c2cccc(C(F)(F)F)c2)NC(=O)CNC(=O)[C@@H](CC(=O)O)NC(=O)[C@H](N)CSSC[C@H](C(N)=O)NC1=O |
| > 25 | CC(C)CN[C@@H]1CSSC[C@H](C(N)=O)NC(=O)[C@H](CC(N)=O)NC(=O)[C@@H]2C[C@@H](O)CN2C(=O)CNC(=O)[C@H](Cc2ccc(O)c([N+](=O)[O-])c2)NC(=O)CNC(=O)[C@@H](CC(=O)O)NC1=O |
| 19.8 | NC(=O)C[C@@H]1NC(=O)[C@@H]2C[C@@H](O)CN2C(=O)CNC(=O)[C@H](Cc2ccc(O)c(Cl)c2)NC(=O)CNC(=O)[C@@H](CC(=O)O)NC(=O)[C@H](N)CSSC[C@H](C(N)=O)NC1=O |
| > 25 | COc1cc(C[C@@H]2NC(=O)CNC(=O)[C@@H](CC(=O)O)NC(=O)[C@H](N)CSSC[C@H](C(N)=O)NC(=O)[C@H](CC(N)=O)NC(=O)[C@@H]3C[C@@H](O)CN3C(=O)CNC2=O)ccc1O |
| 11.9 | NC(=O)C[C@@H]1NC(=O)[C@@H]2C[C@@H](O)CN2C(=O)CNC(=O)[C@H](Cc2cc([N+](=O)[O-])c(O)c([N+](=O)[O-])c2)NC(=O)CNC(=O)[C@@H](CC(=O)O)NC(=O)[C@H](N)CSSC[C@H](C(N)=O)NC1=O |
| > 25 | NC(=O)C[C@@H]1NC(=O)[C@@H]2C[C@@H](O)CN2C(=O)CNC(=O)[C@H](CCc2ccc(O)cc2)NC(=O)CNC(=O)[C@@H](CC(=O)O)NC(=O)[C@H](N)CSSC[C@H](C(N)=O)NC1=O |
| 23.7 | NC(=O)C[C@@H]1NC(=O)[C@@H]2C[C@@H](O)CN2C(=O)CNC(=O)[C@H](c2ccc(F)cc2)NC(=O)CNC(=O)[C@@H](CC(=O)O)NC(=O)[C@H](N)CSSC[C@H](C(N)=O)NC1=O |
| > 25 | NC(=O)C[C@@H]1NC(=O)[C@@H]2C[C@@H](O)CN2C(=O)CNC(=O)[C@H](Cc2cc(I)c(O)c(I)c2)NC(=O)CNC(=O)[C@@H](CC(=O)O)NC(=O)[C@H](N)CSSC[C@H](C(N)=O)NC1=O |
| 19 | NC(=O)C[C@@H]1NC(=O)[C@@H]2C[C@@H](O)CN2C(=O)CNC(=O)[C@H](c2ccccc2Cl)NC(=O)CNC(=O)[C@@H](CC(=O)O)NC(=O)[C@H](N)CSSC[C@H](C(N)=O)NC1=O |
| 16.9 | NC(=O)C[C@@H]1NC(=O)[C@@H]2C[C@@H](O)CN2C(=O)CNC(=O)[C@@H]2CCCN2C(=O)CNC(=O)[C@@H](CC(=O)O)NC(=O)[C@H](N)CSSC[C@H](C(N)=O)NC1=O |
| 3.1 | NC(=O)C[C@@H]1NC(=O)[C@@H]2C[C@@H](O)CN2C(=O)CNC(=O)[C@H](c2cccc([N+](=O)[O-])c2)NC(=O)CNC(=O)[C@@H](CC(=O)O)NC(=O)[C@H](N)CSSC[C@H](C(N)=O)NC1=O |
